US6800618B2, “Chemosensitizing agents against chloroquine resistant plasmodium falciparum and methods of making and using thereof” (The United States of America as represented by the …, priority 2001, dated 2004)

Assays:
[1] = tested on: Plasmodium falciparum W2 clone; test: FIC index with chloroquine (isobologram analysis) in W2 clone; format: cell-based; parameters: key: 1.0 = additive; <1.0 = synergy; >1.0 = antagonism; settings: 1:1 combination of drug and chloroquine; chloroquine-resistant W2 clone
Experimental: In brief, the assay is based on the incorporation of radiolabeled hypoxanthine by the parasites and inhibition of isotope incorporation is attributed to activity of known or candidate antimalarial drugs. For each assay, proven antimalarials, such as chloroquine, mefloquine, quinine, artemisinin, pyrimethamine and sulfadoxine, were used as controls. The incubation period was 66 hours and the starting parasitemia was 0.2% with a 1% hematocrit. […] Albumax may be used instead of 10% normal heat inactivated human plasma.
(§1) 25 μl of each diluted candidate compound was then transferred to test plates, 200 μl of parasitized erythrocytes (0.2% parasitemia and 1% hematocrit) were added, and incubated at 37° C. in a controlled environment of 5% CO2, 5% O2 and 90% N2. After 42 hours, 25 μl of ^3H-hypoxanthine was added and the plates were incubated for an additional 24 hours. At the end of the 66 hour incubation period, the plates were frozen at −70° C. to lyse the red cells and later thawed and harvested onto glass fiber filter mats by using a 96-well cell harvester. The filter mats were then counted in a scintillation counter and the data was analyzed.
The FIC is the actual IC50 of one compound in the presence of a second compound but is expressed as a fraction of its IC50 when used alone. This index is a mathematical representation of the isobologram such that an FIC index of 1.0 represents the line of additive on the isobologram. An FIC index of less than 1.0 represents synergy or potentiation and an FIC index of greater than 1.0 represents antagonism.
In the isobologram graphs as shown in FIGS. 1-3, the x-axis is fractional inhibitory concentration (FIC) of chloroquine and the y-axis is FIC of chemosensitizing agent. The FIC is the actual IC50 of one drug in the presence of the second drug but is expressed as a fraction of its IC50 when used alone. If the isobologram graph is a straight line, it represents an additive effect of the two drugs. If the graph forms a concave curve below the line, it indicates synergy or potentiation of the combination. Below the line means synergy or potentiation and above the line means antagonism.

RCS = test: FIC index in RCS isolate; format: cell-based, Plasmodium falciparum; parameters: key: 1.0 = additive; <1.0 synergy; >1.0 antagonism; settings: isolate from Brazil; same method as for W-2
Experimental: (§2) Fifty percent inhibitory concentrations (IC50s) were determined for each candidate compound alone and for candidate compounds in fixed combinations of their respective IC50s (1:1, 1:3, 3:1). […] See Elion, G. V., et al. (1954) J Biol Chem 208:477-488, which is herein incorporated by reference. The FIC is the actual IC50 of one compound in the presence of a second compound but is expressed as a fraction of its IC50 when used alone. This index is a mathematical representation of the isobologram such that an FIC index of 1.0 represents the line of additive on the isobologram. An FIC index of less than 1.0 represents synergy or potentiation and an FIC index of greater than 1.0 represents antagonism.
(§3) Parasites from different regions responded differently to the compounds of the present invention. The same assay method described above for W-2 was used except that the strains used were isolated from Thailand, Brazil, and Peru, respectively.

TM91C235 = test: FIC index in TM91C235 isolate; format: cell-based, Plasmodium falciparum; parameters: key: 1.0 = additive; <1.0 = synergy; >1.0 = antagonism; settings: isolate from Southeast Asia (Thailand); same method as for W-2
Experimental: Fifty percent inhibitory concentrations (IC50s) were determined for each candidate compound alone and for candidate compounds in fixed combinations of their respective IC50s (1:1, 1:3, 3:1). […] The FIC is the actual IC50 of one compound in the presence of a second compound but is expressed as a fraction of its IC50 when used alone. This index is a mathematical representation of the isobologram such that an FIC index of 1.0 represents the line of additive on the isobologram. An FIC index of less than 1.0 represents synergy or potentiation and an FIC index of greater than 1.0 represents antagonism.
The same assay method described above for W-2 was used except that the strains used were isolated from Thailand, Brazil, and Peru, respectively.

TM91C235 cells = test: In vitro reversal activity (cell growth suppression, 3H-hypoxanthine incorporation) in TM91C235 cells; format: cell-based, Plasmodium falciparum; settings: for Control % sup: test compounds only; for restoring the drug sensitivity of the mefloquine resistant cell line: coadministration with mefloquine
From the text: For quantitative in vitro drug susceptibility testing, two well characterized P. falciparum clones, W2 and D6, were used. See Oduola et al. (1988) Exp Parasitol 66:86-95, which is herein incorporated by reference. W2 is a clone of the Indochina I isolate and is resistant to chloroquine and pyrimethamine, but susceptible to mefloquine. D6 is a clone from the Sierra I/UNC isolate and is susceptible to chloroquine and pyrimethamine, but has reduced susceptibilities to mefloquine and halofantrine. TM91C235 was isolates from Thailand and is highly resistant to mefloquine, chloroquine, and quinine.
The in vitro antimalarial drug susceptibility assay used is a modification of the procedures first published by Desjardins, et al. with modifications developed by Milhous, et al. See Desjardins, R. E., et al. (1979) Antimicrobial Agents Chemother 16:710-718; and Milhous, et al. (1985) Antimicrobial Agents Chemother 27:525-530, which are herein incorporated by reference. In brief, the assay is based on the incorporation of radiolabeled hypoxanthine by the parasites and inhibition of isotope incorporation is attributed to activity of known or candidate antimalarial drugs. For each assay, proven antimalarials, such as chloroquine, mefloquine, quinine, artemisinin, pyrimethamine and sulfadoxine, were used as controls. The incubation period was 66 hours and the starting parasitemia was 0.2% with a 1% hematocrit. The media used was RPMI-1640 culture media with no folate or p-aminobenzoic acid (PABA). Albumax may be used instead of 10% normal heat inactivated human plasma.
If a candidate compound was tested without any prior knowledge of its activity or solubility, the compound was dissolved directly in dimethylsulfoxide (DMSO) and diluted 400 fold with complete culture media. These unknown compounds were normally started at a highest concentration of about 50,000 ng/ml. The compounds were then diluted 2-fold, 11 times, to give a concentration range of about 1,048-fold. These dilutions were performed automatically by a Biomek 1000 or 2000 Liquid Handling System into 96-well microtiter plates.
as §1
Each of these test compounds were tested under three different concentrations, 5000, 500, and 50 ng/ml, in the presence of 10 ng/ml of chloroquine and 5 ng/ml of mefloquine. […] Thus, the compounds of the present invention may be used to treat, prevent or inhibit drug resistant malaria.

Peruvian PC49 = test: FIC index in Peruvian PC49 isolate; format: cell-based, Plasmodium falciparum; parameters: key: 1.0 = additive; <1.0 synergy; >1.0 antagonism; settings: isolate from South America (Peru); same method as for W-2
Experimental: as §2, §3

[2] = test compound 50 ng/ml combined with 5 ng/ml mefloquine
[3] = test compound 50 ng/ml combined with 10 ng/ml chloroquine
[4] = test compound 500 ng/ml combined with 5 ng/ml mefloquine
[5] = test compound 500 ng/ml combined with 10 ng/ml chloroquine
[6] = test compound 5000 ng/ml combined with 5 ng/ml mefloquine
[7] = test compound 5000 ng/ml combined with 10 ng/ml chloroquine

CN(C)CCCCN1c2ccccc2Sc2ccccc21 [7a, 10-(4-Dimethylaminobutyl)phenothiazine]
FIC (fractional inhibitory concentration) index [1]: 0.23 | FIC index RCS (RCS): 0.51 | FIC index TM91C235 (TM91C235): 0.28 | Mefloquine % SUP (TM91C235 cells; [2]): 2% | Chloroquine % sup (TM91C235 cells; [3]): 30% | Mefloquine % SUP (TM91C235 cells; [4]): 31% | Chloroquine % sup (TM91C235 cells; [5]): 97% | Mefloquine % SUP (TM91C235 cells; [6]): 92% | Chloroquine % sup (TM91C235 cells; [7]): 100% | Control % sup (TM91C235 cells; 50 ng/ml): 17% | Control % sup (TM91C235 cells; 500 ng/ml): 27% | Control % sup (TM91C235 cells; 5000 ng/ml): 92%

Cc1ccc(CNCCCCN2c3ccccc3Sc3ccccc32)cc1 [7c, 10-(4-Methylbenzylaminobutyl)phenothiazine]
restoring the drug sensitivity of the mefloquine resistant cell line (TM91C235 cells): not very active | Mefloquine % SUP (TM91C235 cells; [2]): 0% | Chloroquine % sup (TM91C235 cells; [3]): 14% | Mefloquine % SUP (TM91C235 cells; [4]): 0% | Chloroquine % sup (TM91C235 cells; [5]): 27% | Mefloquine % SUP (TM91C235 cells; [6]): 13% | Chloroquine % sup (TM91C235 cells; [7]): 62% | Control % sup (TM91C235 cells; 50 ng/ml): 13% | Control % sup (TM91C235 cells; 500 ng/ml): 18% | Control % sup (TM91C235 cells; 5000 ng/ml): 35%

c1ccc(CN(CCCCN2c3ccccc3Sc3ccccc32)Cc2ccccc2)cc1 [7d, 10-(4-Dibenzylaminobutyl)phenothiazine]
restoring the drug sensitivity of the mefloquine resistant cell line (TM91C235 cells): not very active | Mefloquine % SUP (TM91C235 cells; [2]): 0% | Chloroquine % sup (TM91C235 cells; [3]): 12% | Mefloquine % SUP (TM91C235 cells; [4]): 3% | Chloroquine % sup (TM91C235 cells; [5]): 16% | Mefloquine % SUP (TM91C235 cells; [6]): 9% | Chloroquine % sup (TM91C235 cells; [7]): 25% | Control % sup (TM91C235 cells; 50 ng/ml): 7% | Control % sup (TM91C235 cells; 500 ng/ml): 10% | Control % sup (TM91C235 cells; 5000 ng/ml): 22%

c1ccc2c(c1)Sc1ccccc1N2CCCCN1CCCCC1 [7f, 10-(4-Piperidin-1-yl-butyl)phenothiazine]
FIC index Peruvian PC49 (Peruvian PC49): 0.83 | FIC (fractional inhibitory concentration) index [1]: 0.49 | FIC index RCS (RCS): 0.68 | FIC index TM91C235 (TM91C235): 0.52

c1ccc2c(c1)Sc1ccccc1N2CCCCN1CCOCC1 [7g, 10-(4-Morpholin-4-yl-butyl)phenothiazine]
FIC index Peruvian PC49 (Peruvian PC49): 0.81 | FIC (fractional inhibitory concentration) index [1]: 0.39 | FIC index RCS (RCS): 0.37 | FIC index TM91C235 (TM91C235): 0.32

CN1CCN(CCCCN2c3ccccc3Sc3ccccc32)CC1 [7h, 10-[4-(4-Methyl-piperazin-1-yl)-butyl]phenothiazine]
FIC index Peruvian PC49 (Peruvian PC49): 0.98 | FIC (fractional inhibitory concentration) index [1]: 0.4 | FIC index RCS (RCS): 0.49 | FIC index TM91C235 (TM91C235): 0.48

Cc1ccc(CNCCCCN2c3ccccc3CCc3ccccc32)cc1 [7k, 5-(4-Methylbenzylaminobutyl)iminodibenzyl]
Mefloquine % SUP (TM91C235 cells; [2]): 20% | Chloroquine % sup (TM91C235 cells; [3]): 10% | Mefloquine % SUP (TM91C235 cells; [4]): 22% | Chloroquine % sup (TM91C235 cells; [5]): 20% | Mefloquine % SUP (TM91C235 cells; [6]): 41% | Chloroquine % sup (TM91C235 cells; [7]): 33% | Control % sup (TM91C235 cells; 50 ng/ml): 30% | Control % sup (TM91C235 cells; 500 ng/ml): 32% | Control % sup (TM91C235 cells; 5000 ng/ml): 60%

c1ccc(CN(CCCCN2c3ccccc3CCc3ccccc32)Cc2ccccc2)cc1 [7l, 5-(4-Dibenzylaminobutyl)iminodibenzyl]
Mefloquine % SUP (TM91C235 cells; [2]): 14% | Chloroquine % sup (TM91C235 cells; [3]): 6% | Mefloquine % SUP (TM91C235 cells; [4]): 22% | Chloroquine % sup (TM91C235 cells; [5]): 8% | Mefloquine % SUP (TM91C235 cells; [6]): 19% | Chloroquine % sup (TM91C235 cells; [7]): 13% | Control % sup (TM91C235 cells; 50 ng/ml): 11% | Control % sup (TM91C235 cells; 500 ng/ml): 17% | Control % sup (TM91C235 cells; 5000 ng/ml): 13%

c1ccc2c(c1)CCc1ccccc1N2CCCCN1CCCCC1 [7n, 5-(4-Piperidin-1-yl-butyl) iminodibenzyl]
FIC index Peruvian PC49 (Peruvian PC49): 0.73 | FIC (fractional inhibitory concentration) index [1]: 0.45 | FIC index RCS (RCS): 0.36 | FIC index TM91C235 (TM91C235): 0.54

c1ccc2c(c1)CCc1ccccc1N2CCCCN1CCOCC1 [7o, 5-(4-Morpholin-4-yl-butyl)iminodibenzyl]
FIC index Peruvian PC49 (Peruvian PC49): 0.78 | FIC (fractional inhibitory concentration) index [1]: 0.31 | FIC index RCS (RCS): 0.89 | FIC index TM91C235 (TM91C235): 0.54

CN1CCN(CCCCN2c3ccccc3CCc3ccccc32)CC1 [7p, 5-[4-(4-Methyl-piperazin-1-yl)-butyl]iminodibenzyl]
FIC (fractional inhibitory concentration) index [1]: 0.52 | FIC index RCS (RCS): 0.66 | FIC index TM91C235 (TM91C235): 0.54

CCN(CC)CCCCN(c1ccccc1)c1ccccc1 [7s, N,N-Diethyl-N′,N′-diphenyl-butane-1,4-diamine]
FIC (fractional inhibitory concentration) index [1]: 0.48 | FIC index RCS (RCS): 0.33 | FIC index TM91C235 (TM91C235): 0.3

c1ccc(N(CCCCN2CCCC2)c2ccccc2)cc1 [7t, Diphenyl-(4-pyrrolidin-1-yl-butyl)amine]
FIC (fractional inhibitory concentration) index [1]: 0.45 | FIC index RCS (RCS): 0.37 | FIC index TM91C235 (TM91C235): 0.32

CCN(CC)CCCCCN1c2ccccc2CCc2ccccc21 [7u, 5-(5-Diethylaminopentyl)iminodibenzyl]
FIC index Peruvian PC49 (Peruvian PC49): 0.82 | FIC (fractional inhibitory concentration) index [1]: 0.44 | FIC index RCS (RCS): 0.36 | FIC index TM91C235 (TM91C235): 0.48

CCN(CC)CCCCCCN1c2ccccc2CCc2ccccc21 [7w, 5-(6-Diethylaminohexyl)iminodibenzyl]
FIC (fractional inhibitory concentration) index [1]: 0.48 | FIC index RCS (RCS): 0.72 | FIC index TM91C235 (TM91C235): 0.59

CCN(CC)CCCC(C)Nc1ccnc2cc(Cl)ccc12 (stereo not shown) [chloroquine]
cell growth inhibition of TM91C235 cells by drug alone (TM91C235 cells; 10 ng/ml of chloroquine alone): did not inhibit the cell growth

OC(c1cc(C(F)(F)F)nc2c(C(F)(F)F)cccc12)C1CCCCN1 (stereo not shown) [mefloquine, reference compound]
cell growth inhibition of TM91C235 cells by drug alone (TM91C235 cells; 5 ng/ml of mefloquine alone): did not inhibit the cell growth
